Measurements: US12460265B2, “Post-treatment breast cancer prognosis” (Biotheranostics, Inc., priority 2010, dated 2025)

How the values were obtained:
ER+ breast cancer = assay: NCIC CTG MA.17 case-control study: cancer recurrence after 5 years of adjuvant tamoxifen, letrozole vs placebo; type: in vivo, human; conditions: for Cases (cancer recurrence), number / Cases (cancer recurrence), percent: Letrozole arm
From the text: Samples from the NCIC CTG MA.17 cohort (see Goss et al., J. Clin. Oncol., 26(12):1948-1955, 2008) were used. 100 cases with 200 controls were used. The 100 cases included 61 cases of distant cancer recurrence; 17 cases of local cancer recurrence; 5 cases of regional cancer recurrence; 16 cases of contralateral recurrences; and 1 unknown case. Of these, the contralateral and unknown cases were excluded.
Clinical follow-up data were available for the samples used, which were formalin-fixed paraffin-embedded (FFPE) tumor blocks from the time of diagnosis. Odds ratios were calculated with analysis of BCI, H:I, HoxB13 and MGI as continuous and categorical variables. Multivariate analysis also included age, tumor grade and treatment in the analysis. Treatment interaction: age and tumor grade were also included in the analysis. P-values were calculated for the interaction term.
STATISTICAL ANALYSES: Kaplan-Meier analysis with logrank test and Cox proportional hazards regression were performed to assess the association of gene expression indexes with clinical outcome. Multivariate Cox regression models were performed to assess the prognostic capacity of gene expression indexes after adjusting for known prognostic factors.
Proportional hazards (PH) assumption was checked by scaled Schoenfeld residuals; variables violating PH assumption were adjusted for in the model through stratification. To account for the case-cohort design of the Table 1 cohort, we used weighted Kaplan-Meier analysis and Cox regression models with modifications to handle case-cohort designs (see ^19,20 as implemented in the survey package in R (www.r-project.org). To test for interaction between dichotomized MGI and the H:I ratio in Cox regression models, the Wald statistic was used in the Table 1 cohort and likelihood ratio test was used in the last cohort.

[1] = test system: primary ER+ breast cancer; conditions: post-tamoxifen treatment; subjects with primary ER+ breast cancer; cited from earlier work

**Q.** What does the source list for `N#Cc1ccc(C(c2ccc(C#N)cc2)n2cncn2)cc1` [Letrozole, letrozole]?
**A.** Cases (cancer recurrence), number (ER+ breast cancer; High HoxB13 expression): 17; Cases (cancer recurrence), percent (ER+ breast cancer; High HoxB13 expression): (28%); Cases (cancer recurrence), number (ER+ breast cancer; Low HoxB13 expression): 14; Cases (cancer recurrence), percent (ER+ breast cancer; Low HoxB13 expression): (23%); Odds Ratio, Treatment (Placebo vs Letrozole), in relation to cancer recurrence (ER+ breast cancer; univariate analysis, MA.17 subjects, 95% CI in the next column): 2.02; breast cancer-free survival and distant breast cancer-free survival [1]: improves breast cancer-free survival and distant breast cancer-free survival
